Measurements: PMC12714728, “VHH antibody loop guides design of a synthetic macrocyclic peptide that potently blocks influenza virus membrane fusion” (npj Viruses, 2025)
Starred links: 1 amine or outer side, 2 acyl side, 3 side chain; linkers in the order of their positions; H or OH if unused. Positions of bridges follow the written chain, without caps; N, C: chain ends. Residues, ends and D or L forms follow the SMILES beside them. Suc = O=C(CCC(=O)[*:2])[*:1]

What was measured:
[1] = test system: group 1 H1/Cal, H1/NCa, and H5/Viet HAs; format: binding, influenza A virus; conditions: read-out: IC50 in AlphaLISA (range over HAs)
[2] = test system: H1/NCa HA (A/New Caledonia/20/1999 (H1N1)); format: binding, influenza A virus
[3] = test system: H1N1 A/Brisbane/59/2007 (H1/Bri) HA; format: biochemical, influenza A virus; conditions: pH 5.25
[4] = test system: H5/Viet HA (A/Vietnam/1203/2004 (H5N1)); format: binding, influenza A virus
[5] = molecular target: group 1 H1/Cal, H1/NCa, and H5/Viet HAs; format: binding, influenza A virus; conditions: read-out: KD by SPR (range over HAs)
[6] = test system: H1/Cal HA (A/California/07/2009 (H1N1)); format: binding, influenza A virus
[7] = In vitro cell permeability assay; conditions: for Papp B→A at 120 min, 5 µM: LLC-Parent, basolateral to apical
P-gp (MDR1) = assay: In vitro cell permeability / P-gp substrate assay; conditions: pig; for Papp A→B at 120 min, 5 µM: LLC-MDR1, apical to basolateral; for Papp B→A at 120 min, 5 µM: LLC-MDR1, basolateral to apical
[8] = test system: HAs from group 2 and influenza B viruses; format: binding, influenza A and B viruses

CSCC[C@@H]1NC(=O)CNC(=O)CNC(=O)[C@H](C)NC(=O)[C@H](C(C)C)NC(=O)CNC(=O)[C@H](CC(C)C)NC(=O)[C@@H]2CCCN2C(=O)[C@H](CC(=O)O)NC(=O)[C@H](CCCNC(=N)N)NC(=O)[C@H](Cc2ccc(O)cc2)NC(=O)[C@H](CC(C)C)NC(=O)[C@@H](NC(=O)CCC(=O)O)CSSC[C@@H](C(N)=O)NC(=O)CNC1=O [CP8]
IC50 [1]: 0.11 to 1.55 µM | IC50 [2]: 0.16 ± 0.02 µM | IC50 [3]: 0.54 ± 0.01 µM | IC50 [4]: 1.55 ± 0.29 µM | Kd [5]: 0.32 to 0.33 µM | IC50 [6]: 0.11 µM

CSCC[C@@H]1NC(=O)CNC(=O)CNC(=O)[C@H](C)NC(=O)[C@H](C(C)C)NC(=O)CNC(=O)[C@H](CC(C)C)NC(=O)[C@@H]2CCCN2C(=O)[C@H](CC(=O)O)NC(=O)[C@H](CCC(=O)O)NC(=O)[C@H](Cc2ccc(O)cc2)NC(=O)[C@H](CC(C)C)NC(=O)[C@@H](NC(=O)CCC(=O)O)CSSC[C@@H](C(N)=O)NC(=O)CNC1=O [CP9]
IC50 [2]: 0.7 ± 0.02 µM | IC50 [3]: 0.23 ± 0.02 µM | IC50 [4]: 5.59 ± 0.21 µM | IC50 [6]: 0.3 ± 0.03 µM

CSCC[C@@H]1NC(=O)[C@H](CCC(=O)O)NC(=O)CNC(=O)[C@H](C)NC(=O)[C@H](C(C)C)NC(=O)CNC(=O)[C@H](CC(C)C)NC(=O)[C@@H]2CCCN2C(=O)[C@H](CC(=O)O)NC(=O)[C@H](CCCNC(=N)N)NC(=O)[C@H](Cc2ccc(O)cc2)NC(=O)[C@H](CC(C)C)NC(=O)[C@@H](NC(=O)CCC(=O)O)CSSC[C@@H](C(N)=O)NC(=O)CNC1=O [CP10] (Suc-CLYRDPLGVAGEMGC-NH2; disulfide 1-15)
IC50 [2]: 2.93 ± 0.32 µM | IC50 [3]: 0.46 ± 0.04 µM | IC50 [4]: 7.61 ± 1.56 µM | IC50 [6]: 0.61 ± 0.08 µM

CSCC[C@@H]1NC(=O)CNC(=O)CNC(=O)[C@H](C)NC(=O)[C@H](C(C)C)NC(=O)CNC(=O)[C@H](CC(C)C)NC(=O)[C@@H]2CCCN2C(=O)[C@H](CC(=O)O)NC(=O)[C@H](CCCNC(=N)N)NC(=O)[C@H](Cc2ccc(O)cc2)NC(=O)[C@@H](NC(=O)CCC(=O)O)CSSC[C@@H](C(N)=O)NC1=O [CP11]
IC50 [2]: 4.99 ± 0.6 µM | IC50 [3]: 8.52 ± 0.39 µM | IC50 [4]: 7.78 ± 2.63 µM | IC50 [6]: 4.1 ± 0.76 µM

CSCC[C@@H]1NC(=O)CNC(=O)CNC(=O)[C@H](C)NC(=O)[C@H](C(C)C)NC(=O)CNC(=O)[C@H](CC(C)C)NC(=O)[C@@H]2CCCN2C(=O)[C@H](CC(=O)O)NC(=O)[C@H](CCC(=O)O)NC(=O)[C@H](Cc2ccc(O)cc2)NC(=O)[C@@H](NC(=O)CCC(=O)O)CSSC[C@@H](C(N)=O)NC1=O [CP12]
IC50 [2]: 4.95 ± 0.38 µM | IC50 [4]: 28.8 ± 10.2 µM | IC50 [6]: 6.38 ± 0.17 µM

CSCC[C@@H]1NC(=O)[C@H](CCC(=O)O)NC(=O)CNC(=O)[C@H](C)NC(=O)[C@H](C(C)C)NC(=O)CNC(=O)[C@H](CC(C)C)NC(=O)[C@@H]2CCCN2C(=O)[C@H](CC(=O)O)NC(=O)[C@H](CCCNC(=N)N)NC(=O)[C@H](Cc2ccc(O)cc2)NC(=O)[C@@H](NC(=O)CCC(=O)O)CSSC[C@@H](C(N)=O)NC1=O [CP13]
IC50 [2]: 12.79 ± 0.09 µM | IC50 [3]: 39.4 ± 8.32 µM | IC50 [4]: 39.8 ± 12.2 µM | IC50 [6]: 11.8 ± 2.61 µM

CSCC[C@@H]1NC(=O)CNC(=O)CNC(=O)[C@H](C)NC(=O)[C@H](C(C)C)NC(=O)CNC(=O)[C@H](CC(C)C)NC(=O)[C@@H]2CCCN2C(=O)[C@H](CC(=O)O)NC(=O)[C@H](CCC(=O)O)NC(=O)[C@H](Cc2ccc(O)cc2)NC(=O)[C@H](CC(C)C)NC(=O)CNC1=O [CP14]
recovery ([7]; LLC-PK1): 96.5% | Papp A→B at 120 min, 5 µM ([7]; pig, LLC-PK1, pH 7.4): 0.11 ×10⁻⁶ cm/s | Papp B→A at 120 min, 5 µM ([7]; pig, LLC-PK1, pH 7.4, Papp BA, no inhibitor): 0.12 ± 0.01 ×10⁻⁶ cm/s | Papp B→A at 120 min, 5 µM ([7]; pig, LLC-PK1, pH 7.4, with 5 µM GF120918 (elacridar), Papp BA, + 5 µM GF120918): 0.11 ± 0.01 ×10⁻⁶ cm/s | IC50 [2]: 1.24 ± 0.15 µM | IC50 [3]: 1.24 ± 0.03 µM | IC50 [4]: 10 ± 0.91 µM | IC50 [6]: 1.72 ± 0.24 µM | Papp A→B at 120 min, 5 µM (P-gp (MDR1); LLC-PK1, pH 7.4, Papp AB, no inhibitor): 0.26 ± 0.04 ×10⁻⁶ cm/s | Papp B→A at 120 min, 5 µM (P-gp (MDR1); LLC-PK1, pH 7.4, Papp BA, no inhibitor): 0.32 ± 0.05 ×10⁻⁶ cm/s | Papp A→B at 120 min, 5 µM (P-gp (MDR1); LLC-PK1, pH 7.4, with 5 µM GF120918 (elacridar), Papp AB, + 5 µM GF120918): 0.25 ± 0.01 ×10⁻⁶ cm/s | Papp B→A at 120 min, 5 µM (P-gp (MDR1); LLC-PK1, pH 7.4, with 5 µM GF120918 (elacridar), Papp BA, + 5 µM GF120918): 0.33 ± 0.05 ×10⁻⁶ cm/s

CSCC[C@H](NC(=O)CNC(=O)CNC(=O)[C@H](C)NC(=O)[C@@H](NC(=O)CNC(=O)[C@H](CC(C)C)NC(=O)[C@@H]1CCCN1C(=O)[C@H](CC(=O)O)NC(=O)[C@H](CCCNC(=N)N)NC(=O)[C@H](Cc1ccc(O)cc1)NC(=O)[C@H](CC(C)C)NC(=O)[C@H](CO)NC(=O)[C@@H](NC(=O)CCC(=O)O)C(C)C)C(C)C)C(=O)NCC(=O)N[C@H](C(=O)N[C@@H](Cc1ccc(O)cc1)C(N)=O)C(C)C [LP1]
IC50 [1]: 11 to 47 µM | IC50 [2]: 22.9 ± 4.14 µM | IC50 [4]: 47.9 ± 3.77 µM | Kd [5]: 3 to 7 µM | IC50 [6]: 11.5 ± 2.5 µM | Binding to HAs of group 2 and influenza B viruses [8]: no binding was observed
